In patent publication US20010031275A1, “Sesamol inhibitor of delta-5-desaturase activity and uses therefor” (priority 1998, published 2001):
Several values for one entry are separate records, joined by “and”; a condition that tells them apart may be missing. Equal entries are not always repeated. Entries after “also recorded” stand apart in the source; their conditions may differ. Marks after values point to notes of the source that are not given here.

Assays:
[1] = test system: PGE2, IL-10, IL-6 and TNF-α; conditions: fed mice, cited from earlier work
Δ-5 desaturase enzyme = conditions: Shimizu et al., Lipids 26:512-516 (1991); cited from earlier work
[2] = test system: IL-6, IL-10, IL-12, TNF-α and PGE2; assay: Synthetic sesamol diet in endotoxic mice: plasma cytokines and PGE2 after LPS challenge; format: in vivo, Balb/c mice; conditions: 5% SO + 0.25% synthetic sesamol diet, three weeks, 50 μg/mouse LPS for 90 minutes or three hours
Text: Proinflammatory mediators play an important role during endotoxic shock. As described herein, naturally occurring sesamol inhibits Δ-5 desaturase activity, and also decreases the production of prostaglandin (PG)E2. No such scientific data are available for the synthetic, pure form of sesamol. Therefore, the effects of consuming synthetic sesamol on proinflammatory immune responses during septic shock were studied. Female Balb/c mice were fed diets supplemented with 5% safflower oil (SO) in the absence or presence of 0.25% synthetic sesamol for three weeks. After a challenge with 50 μg/mouse LPS for 90 minutes or three hours, the plasma levels (pg/ml) of interleukin (IL)-6, IL-10, IL-12, tumor necrosis factor (TNF)-α and PGE2 were determined.

[3] = test system: TNF-α, IL-6, IL-10 and IL-12; assay: Endotoxin-induced in vivo production of cytokines (plasma ELISA) in mice fed sesamol-supplemented SO diet; set-up: species or system Balb/c mice; conditions: SO + 1% sesamol diet, mean ± s.e.; for Tumor Necrosis Factor (TNF)-α: plasma at 1 hour following LPS, SO alone 3,042 ± 428; for Interleukin (IL)-6 / IL-10 / IL-12: plasma at 3 hours following LPS; for Interleukin (IL)-6: SO alone 143 ± 22; for IL-10: SO alone 262 ± 15; for IL-12: SO alone 6,355 ± 482
Experimental: Data represent the levels of […] (means±s.e.) in plasma samples obtained at 1 hour for TNF-α, and at 3 hours for IL-6, IL-10, and IL-12 following LPS exposure. The levels of significance in the differences between the two groups were determined using Dunnett Multiple Comparison test.
(§1) Diets: The AIN-76A fat-free powder along with 0.05% t-butyl hydroxy toluene, an antioxidant, was mixed with 5 wt % (10% Kcal) of safflower oil (Oilseeds International Ltd., Fresno, Calif.), partitioned into daily rations packaged in separate whirl-pack bags, flushed with N2, and stored at 4° C. Where indicated, these diets were supplemented with 1 wt % sesamol (Aldrich Chemical Company Inc. Milwaukee, Wis.).
The plasma levels of TNF-α, IL-6, IL-10 and IL-12 were determined according to the manufacturer's instructions using enzyme-linked immunosorbent assay kits (Biosource International, Camarrilo, Calif.).

[4] = test system: Δ-5 desaturation of ω6 fatty acids; assay: Fatty acid composition of liver membrane phospholipids from mice fed sesamol-supplemented safflower oil diet; format: in vivo, Balb/c mice; conditions: 2 weeks; for DGLA (20:3ω6): control 1.4 ± 0.1; for Docosapentaenoic acid (22:5ω6): control 2.5 ± 0.4; for Δ-5 desaturation (20:4ω6/20:3): ratio Arachidonic acid/Dihomo-γ-linolenic acid, liver phospholipids, SO + 1% sesamol diet, control 18.0 ± 1.7
Experimental: The phospholipid fatty acid composition of the livers were determined, and the data represent mean mole percents of the total fatty acids (±s.d.). The levels of significance between the groups were determined using an unpaired student's t-test (p,0.05).
[…] They were allowed free access to drinking water and the experimental diets were fed at dusk, daily, between 4-5 PM. The weights of the body, and of the liver and spleen were determined on days 4, 7 and 14.
as §1
Fatty acid analysis: Liver tissues were homogenized and extracted with a mixture of chloroform:methanol(2:1 v/v) containing 0.01% t-butylated hydroxytoluene as an antioxidant. The solvent fraction was isolated and evaporated to dryness under N2 and reconstituted in chloroform. The total phospholipids were separated by thin-layer chromatography on silica gel-H plates (Analtech Inc., Newark, Del.), and the fatty acid methyl esters were derived (Palombo et al., Lipids 29: 643-649 (1994)) and analyzed on a fused silica capillary column (100 m, 0.25 mm ID, 0.20 μm thickness; SP™-2560, Supelco Inc., Bellefonte, Pa.) using a gas chromatograph (5890 Series II) equipped with a mass selective detector (5971, Hewlett-Packard). The results were expressed as relative percent of identified fatty acids on a molar basis, using heptadecaenoic acid (17:0) as an internal standard.
The changes in the fatty acid composition (mean±s.d; mol. %) were determined in the liver membrane phospholipids from mice fed both the SO diets for 2 weeks (Table 1). […] Similar data were obtained in mice fed for as short as 4 days (data not shown).

[5] = Weights of body, liver and spleen of mice fed sesamol-supplemented diets; format: in vivo, Balb/c mice
Experimental: Animals: Six 8-week old, inbred, female Balb/c mice (Taconic Farms) were housed in our animal facility with a 12 hour day and 12 hour night cycle. They were allowed free access to drinking water and the experimental diets were fed at dusk, daily, between 4-5 PM. The weights of the body, and of the liver and spleen were determined on days 4, 7 and 14.

[6] = liver membrane phospholipids, 5 wt % SO + 1% sesamol diet, mean ± s.d., n=8
[7] = liver membrane phospholipids, 5 wt % SO + 1% sesamol diet, mean ± s.d., n=8, listed as SO + SESAMOL
[8] = mice fed sesamol-supplemented diets vs SO diets

For `c1cc2c(cc1[C@H]1OC[C@H]3[C@@H]1CO[C@@H]3c1ccc3c(c1)OCO3)OCO2` [sesamin], the “LPS-induced production of IL-6” value ([1]; Chavali et al. 1997) is given as “lower”, the “LPS-induced production of IL-10” value ([1]; Chavali et al. 1997) is given as “lower” and the “LPS-induced production of PGE2” value ([1]; Chavali et al. 1997) is given as “lower”. The “LPS-induced production of TNF-α” value ([1]; Chavali et al.) was “elevated; also recorded: higher” and the “inhibition of the activity of Δ-5 desaturase enzyme in vitro” value (Δ-5 desaturase enzyme) was “inhibit”.

In the case of `Oc1cc2c(cc1[C@H]1OC[C@H]3[C@@H]1CO[C@@H]3c1ccc3c(c1)OCO3)OCO2` [sesaminol], the “inhibition of the activity of Δ-5 desaturase enzyme in vitro” value (Δ-5 desaturase enzyme) is listed as “inhibit”.

In the case of `Oc1ccc2c(c1)OCO2` [sesamol, 3,4-methylenedioxyphenol], the IL-10 ([2]; SO alone 314 ± 37) is reported as “significantly higher”, the IL-10 ([2]; SO alone 314 ± 37, listed as SO + Sesamol) is reported as 490 ± 35 pg/mL and the IL-6 ([2]; SO alone 418 ± 51) is reported as “did not differ”. The IL-6 ([2]; SO alone 418 ± 51, listed as SO + Sesamol) was 360 ± 32 pg/mL, the PGE2 ([2]; SO alone 595 ± 68) was “markedly lower” and the PGE2 ([2]; SO alone 595 ± 68, listed as SO + Sesamol) was 265 ± 39 pg/mL. The TFN-α ([2]; SO alone 9,497 ± 1425) was “markedly lower”, the TFN-α ([2]; SO alone 9,497 ± 1425, listed as SO + Sesamol) was 4,503 pg/ml and the IL-12 ([2]; SO alone 11,165 ± 549) was “markedly lower”. For the same compound, the IL-12 ([2]; SO alone 11,165 ± 549, listed as SO + Sesamol) was 8,969 pg/ml, the “inhibition of the activity of Δ-5 desaturase enzyme in vitro” value (Δ-5 desaturase enzyme) was “does not inhibit” and the “Tumor Necrosis Factor (TNF)-α” value [3] was “not elevated; also recorded: unaffected; also recorded: did not differ markedly; also recorded: did not differ significantly”. The “Tumor Necrosis Factor (TNF)-α” value ([3]; listed as SO + SESAMOL) was 2,931 ± 461 pg/ml, the “Interleukin (IL)-6” value [3] was 63 ± 11 ng/mL and the “Interleukin (IL)-6” value ([3]; listed as SO + SESAMOL) was 63 ± 11 ng/mL. For the same compound, the IL-10 [3] was “unaffected; also recorded: did not differ markedly; also recorded: did not differ significantly”, the IL-10 ([3]; listed as SO + SESAMOL) was 236 ± 20 pg/mL and the IL-12 [3] was “did not differ markedly”. For the same compound, the IL-12 ([3]; listed as SO + SESAMOL) was 6,620 ± 646 pg/ml, the “Arachidonic acid (20:4ω6)” value [4, 6] was “unchanged” and the “Docosahexaenoic acid (22:6ω3)” value [4, 6] was 9.5 ± 0.4 mole percents. For the same compound, the “Oleic acid (18:1ω9)” value [4, 6] was 8.2 ± 1.1 mole percents, the “Palmitic acid (16:0)” value [4, 6] was 19.5 ± 1.4 mole percents and the “Stearic acid (18:0)” value [4, 6] was 19.2 ± 1.7 mole percents. For the same compound, the “Vaccenic acid (18:1ω7)” value [4, 6] was 2.6 ± 0.4 mole percents, the “DGLA (20:3ω6)” value [4, 6] was 1.6±0.1 mole percents and 1.6±1 mole percents and the “DGLA (20:3ω6)” value [4, 7] was 1.6 ± 0.1^a mole percents. For the same compound, the “Docosapentaenoic acid (22:5ω6)” value [4, 6] was 1.4±0.1 mole percents, the “Docosapentaenoic acid (22:5ω6)” value [4, 7] was 1.4 ± 0.1^a mole percents and the “Arachidonic acid (20:4ω6)” value [4, 7] was 24.9 ± 0.9 mole percents. The “Δ-5 desaturation (20:4ω6/20:3)” value [4] was 15.6±1.5, the “Δ-5 desaturation (20:4ω6/20:3)” value ([4]; listed as SO + SESAMOL) was 15.6 ± 1.5^a and the weights of body [5, 8] was “not significantly different”. For the same compound, the weights of livers [5, 8] was “unaffected; also recorded: not significantly different”, the “weights of the spleen” value [5, 8] was “not significantly different” and the “percent gain in body weights” value ([5]; sesamol-supplemented vs SO diet group) was “almost identical”.

In the case of `c1cc2c(cc1O[C@H]1OC[C@H]3[C@@H]1CO[C@@H]3c1ccc3c(c1)OCO3)OCO2` [sesamolin], the “inhibition of the activity of Δ-5 desaturase enzyme in vitro” value (Δ-5 desaturase enzyme) is listed as “inhibit”.
